Biological target: T1, human TLR8 (Homo sapiens, UniProt Q9NR97)
T1 sequence (Q9NR97 27-1041): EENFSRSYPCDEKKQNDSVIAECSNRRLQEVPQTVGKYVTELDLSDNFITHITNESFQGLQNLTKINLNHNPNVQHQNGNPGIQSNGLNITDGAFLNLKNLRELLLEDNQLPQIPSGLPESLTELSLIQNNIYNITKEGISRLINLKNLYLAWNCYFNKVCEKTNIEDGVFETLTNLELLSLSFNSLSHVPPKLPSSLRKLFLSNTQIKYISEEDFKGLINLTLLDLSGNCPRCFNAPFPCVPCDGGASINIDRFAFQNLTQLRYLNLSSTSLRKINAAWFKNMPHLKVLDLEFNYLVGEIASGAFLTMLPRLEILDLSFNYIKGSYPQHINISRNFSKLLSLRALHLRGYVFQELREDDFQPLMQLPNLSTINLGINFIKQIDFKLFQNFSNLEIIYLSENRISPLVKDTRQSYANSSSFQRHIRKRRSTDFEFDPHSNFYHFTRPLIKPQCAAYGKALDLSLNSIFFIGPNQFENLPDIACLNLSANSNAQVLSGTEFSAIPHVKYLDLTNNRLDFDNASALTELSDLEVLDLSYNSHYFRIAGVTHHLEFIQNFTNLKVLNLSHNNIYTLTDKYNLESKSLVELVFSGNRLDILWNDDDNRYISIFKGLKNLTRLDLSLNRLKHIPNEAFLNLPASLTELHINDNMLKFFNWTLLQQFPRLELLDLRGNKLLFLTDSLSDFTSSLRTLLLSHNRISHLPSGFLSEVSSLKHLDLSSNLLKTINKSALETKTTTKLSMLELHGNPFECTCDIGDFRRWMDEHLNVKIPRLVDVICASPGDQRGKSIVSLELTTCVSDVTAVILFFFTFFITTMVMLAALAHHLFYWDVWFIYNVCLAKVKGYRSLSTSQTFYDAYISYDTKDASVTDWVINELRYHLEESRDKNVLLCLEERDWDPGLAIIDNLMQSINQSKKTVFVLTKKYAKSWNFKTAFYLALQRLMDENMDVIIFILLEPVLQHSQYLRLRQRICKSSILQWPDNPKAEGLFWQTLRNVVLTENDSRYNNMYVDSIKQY
Assay: HEK293-Blue-hTLR-8 cells assay (SEAP reporter, R848 stimulation)
Assay type: cell-based
Details: HEK293-Blue-hTLR8 cells, R848 ligand, 20 hrs incubation
Outline: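 Antagonism was measured in HEK293-Blue-hTLR8 cells with an NF-κB/AP-1-driven SEAP reporter. Cells were stimulated with R848 (10 μL of 60 uM stock) alongside compound (1% DMSO) for 20 hrs at 37° C. Supernatant SEAP was read with QUANTI-Blue after 2 hrs, absorbance at 620-655 nm.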

`N#Cc1ccc(N2C[C@H](CN3CC4CNCC4C3)[C@@H](C(F)(F)F)C2)c2nccnc12` (stereo partly drawn) [Example 76, 8-[(3S,4R)-3-(2,3,3a,4,6,6a-hexahydro-1H-pyrrolo[3,4-c]pyrrol-5-ylmethyl)-4-(trifluoromethyl)pyrrolidin-1-yl]quinoxaline-5-carbonitrile] showed an IC50 of 0.041 µM.

For `N#Cc1ccc(N2C[C@H](CN3CC4CCC3CN4)[C@@H](C(F)(F)F)C2)c2nccnc12` (stereo partly drawn) [Example 77, 8-[(3S,4R)-3-(2,5-diazabicyclo[2.2.2]octan-2-ylmethyl)-4-(trifluoromethyl)pyrrolidin-1-yl]quinoxaline-5-carbonitrile], the IC50 was 0.026 µM.

`N#Cc1ccc(N2C[C@H](CN3CCCC(F)(CN)C3)[C@@H](C(F)(F)F)C2)c2nccnc12` (stereo partly drawn) [Example 78, 8-[(3S,4R)-3-[[3-(aminomethyl)-3-fluoro-1-piperidyl]methyl]-4-(trifluoromethyl)pyrrolidin-1-yl]quinoxaline-5-carbonitrile] gave an IC50 of 0.03 µM.

`N#Cc1ccc(N2C[C@H](CN3CCC(CCN)CC3)[C@@H](C(F)(F)F)C2)c2nccnc12` [Example 79, 8-[(3S,4R)-3-[[4-(2-aminoethyl)-1-piperidyl]methyl]-4-(trifluoromethyl)pyrrolidin-1-yl]quinoxaline-5-carbonitrile] was tested, and the IC50 was 0.102 µM.

Compound `CN(C)C1CCN(C[C@H]2CN(c3ccc(C#N)c4nccnc34)C[C@@H]2C(F)(F)F)CC1` [Example 80, 8-[(3S,4R)-3-[[4-(dimethylamino)-1-piperidyl]methyl]-4-(trifluoromethyl)pyrrolidin-1-yl]quinoxaline-5-carbonitrile] has an IC50 of 0.032 µM.

Work on `CNCC1CCN(C[C@H]2CN(c3ccc(C#N)c4nccnc34)C[C@@H]2C(F)(F)F)CC1` [Example 81, 8-[(3S,4R)-3-[[4-(methylaminomethyl)-1-piperidyl]methyl]-4-(trifluoromethyl)pyrrolidin-1-yl]quinoxaline-5-carbonitrile] yielded an IC50 of 0.025 µM.

In the case of `CN(C)C[C@@H]1CCN(C[C@H]2CN(c3ccc(C#N)c4nccnc34)C[C@@H]2C(F)(F)F)C1` [Example 82, 8-[(3S,4R)-3-[[(3S)-3-[(dimethylamino)methyl]pyrrolidin-1-yl]methyl]-4-(trifluoromethyl)pyrrolidin-1-yl]quinoxaline-5-carbonitrile], the IC50 is reported as 0.108 µM.
